The source of these data is patent US5871779A, “Treatment of arthropathies with vanadate compounds or analogues thereof” (Mount Sinai Hospital Corporation, priority 1996, dated 1999).

Several values for one entry are separate records, joined by “and”; a condition that tells them apart may be missing. Equal entries are not always repeated.

For series [1], the system named is carcinogenesis. The note with it: G. Shklar et al.; cited from earlier work.
For series [2], the system named is MDAY-D2 cells. The series is described as follows: viability of MDAY-D2 cells. The note with it: 0-50 μM, 48 hours, three forms compared. In kind it is cell-based, mouse. The protocol:
Fos and jun activity are also required for cellular proliferation in many tumor cell lines. Accordingly, the effect of orthovanadate on adherent cells and cell suspensions were examined. MDAY-D2 (a mouse lymphoid cell line grown in suspension) and HTB14 cells (an adherent human primary astrocytoma cell line) were incubated in media containing 0-50 μM orthovanadate for 48 hours. The cells were harvested and the number of viable cells determined.
Three different forms of vanadyl compounds were examined for their effect on viability of cancer cell lines. MDAY-D2 cells were incubated in media containing 0-50 μM orthovanadate, vanadyl sulphate, or vanadyl hydroperoxide for 48 hours. The cells were harvested and the number of viable cells determined. […] Although there were slight differences in sensitivity, the overall cell death was similar.

Series [3] concerns MDAY-D2 tumor. The series is described as follows: MDAY-D2 tumor growth in vivo, orthovanadate, vanadyl sulphate, vanadyl hydroperoxide (Example 6B). On the set-up: species or system mice. From the text:
In order to examine the ability of vanadyl compounds to reduce tumor formation, growth and metastases, a specific animal model which allows investigation of all of these processes in the same animal was chosen. This model involves the injection of a metastatic haematopoietic cell line, MDAY-D2, into mice subcutaneously. These cells form a tumor at the site of injection and its size can be easily determined. In addition, these cells metastasize to the liver and metastases can be detected histologically after day 17 to 19. This model provides a very sensitive and reproducible approach to investigate the effect of vanadyl compounds on tumor growth and metastases.
In a separate experiment using the same animal model, the effect of orthovanadate, vanadyl sulphate and vanadyl hydroperoxide administration on tumor growth in vivo was examined. On Day 1, 20 mice were injected with 2×10^5 MDAY-D2 cell subcutaneously. The mice were divided into four groups of five mice. At day 5, the animals were injected subcutaneously with 50 μl of water alone or containing 10 mg/ml of orthovanadate, 10 mg/ml of vanadyl sulphate, or 10 mg/ml of vanadyl hydroperoxide. This treatment was continued daily for 16 days. At day 21, the mice were sacrificed and the tumors dissected and weighed.

Series [4] concerns proliferating chondrocytes. The series is described as follows: viability / proliferation of proliferating chondrocytes (low cell density). The class given is cell-based. The note with it: summary statement. The procedure: In order to compare the effect of orthovanadate on non-proliferating and proliferating chondrocytes, chondrocytes were plated at both high cell density (2×10^6 to 4×10^6 cells/per well on a six well plate) (nonproliferating) and at a lower cell density (5×10^5 to 1×10^6 cells/per well on a six well plate) (proliferating) and then maintained for 48 hours. The cells were then incubated in media (HAMS F12) containing 0-50 μM Orthovanadate for an additional 48 hours. The cells were harvested and the number of viable cells determined.

Series [5] deals with MDAY-2D tumor. The series is described as follows: BEOV and N-acetylcysteine on tumor growth (Example 21). In kind it is in vivo, mice. Set-up: unit not given here. The conditions noted are these: for Tumour weight: individual mice. The protocol: The effectiveness of BEOV in reducing tumor growth was investigated and the effective concentration required for inhibiting tumor growth was determined as follows.
(§1) Forty mice were subcutaneously injected with 100 μl of MDAY-2D tumor cell suspension (8×10^6 /100 μl)on day 1. On day 6, the mice were randomly divided into […] groups and injected following drugs twice a day. The […] groups were as follows: Group 1: 100 μl of PBS; Group 2: 100 μl of 2% NAC(ip) and 0.1 mg BEOV in 100 μl BS; Group 3: 100 μl of 2% NAC(ip) and 0.25 mg BEOV in 100 μl PBS; and Group 4: 100 μl of 2% NAC(ip) and 0.5 mg BEOV in 100 μl PBS. On injection day 9, the mice were sacrificed and the tumors dissected.

The nature of series [6]: body weight of mice, BEOV and N-acetylcysteine (Example 21). In kind it is in vivo. On the set-up: Body weight / Body weight, Average: unit not given here. The conditions noted are these: for Body weight: individual mice; for death of animal: mouse 5. The protocol: as §1
The test system of series [7] is P388 (WT). The series is described as follows: MTT cytotoxicity assay, P388 (WT). In kind it is cell-based, murine. The conditions noted are these: P388 (WT), 72 hours; read-out: IC50 Value. The procedure: (§2) The relative cytotoxicity of various compounds on tumor cell lines was investigated as follows. Cytotoxicity was measured by the MTT microculture tetrazolium colorimetric assay for all cell lines. The relative cytotoxicity of Na3 VO4 and VOSO4 was investigated using the following tumor cell lines: P388(WT) murine leukemia, P388 (ADR) murine leukemia, Lewis murine lung, MCF7 (WT) human breast, […] human lung, K562 human erythroleukemia, A431 human epidermal, LS180 human colon and SK-OV-3 human ovarian. The relative cytotoxicity of doxorubicin, Na3 VO4 and VOSO4 was investigated using the following tumor cell lines: P388(WT) murine leukemia, P388 (ADR) murine leukemia, MCF7(WT) human breast and MCF7 (ADR) human breast. The relative cytotoxicity of BMOV, BEOV and naglivan was investigated using the following tumor cell lines: P388(WT) murine leukemia, P388 (ADR) murine leukemia, Lewis murine lung, H460 human lung, K562 human erythroleukemia, and SK-OV-3 human ovarian.
(§3) The cells were plated (number of cells/well was different from cell line to cell depending on the dividing rate) in a 96-well microculture plate 24 hours prior to the delivery of the vanadium compounds. Serial concentrations of solutions of the test compounds (0.05-100 μM) were delivered to the corresponding wells. A blank column (without cells) and a control column (with cells without vanadium) were left. The cells were incubated for 72 hours continuously. An MTT solution was added to each well after this incubation period and the cells were incubated for 4 more hours for the completion of the dyeing process. The medium was removed find DMSO was added to each well. The absorbance of each well was read with a Titertek Multiskan (310C) spectrophotometer at 570 nm. The percentage of the absorbance of each vanadium concentration relative to the control calculated and the value of the 50% growth inhibition concentration (IC50) was obtained from the % control versus concentration plot. Each assay was repeated three times and the reported IC50 values were the mean of these three runs.

For series [8], the system named is collagenase. The series is described as follows: collagenase production by chondrocytes (ELISA). In kind it is cell-based, bovine. The note with it: summary statement. The protocol: The effect of orthovanadate and N-acetylcysteine on fos, jun and collagenase expression were examined. Bovine articular chondrocytes were isolated and plated as previously described (Kandel R. A. et al. Biochim. Biophys. Acta. 1053, 130-134, 1990). In order to determine the effect of orthovanadate on IL 1 and PMA (phorbol ester) induced responses, chondrocytes were incubated with orthovanadate (100 μM) for 2 hours before stimulation with IL 1 (10 ng/ml) or PMA ([…]). Collagenase production was determined by incubating chondrocytes for 24 hours with IL 1 or PMA and the cell conditioned medium was assayed for collagenase activity using an ELISA procedure as described previously (Kandel et al. supra). PLA2 activity was measured by incorporating ^3 H-arachidonic acid (^3 H-AA) into the cells and then incubating the cells with medium containing 1 mg/ml BSA, either alone or in the presence of IL 1 or PMA, for 10 min. as previously described (Conquer, J. A. […], Biochim. Biophys. Acta. 1134, 1-6). The amount of ^3 H-AA liberated into the supernatant was determined. To measure PGE2 production, chondrocytes were incubated for 6 hours in Ham's F12 medium, either alone or with IL 1 or PMA. The supernatant was analyzed by RIA using an antibody specific for PGE2 (Dr. S. A. Jones, Mount Sinai Hospital, Toronto, Canada). In order to examine the expression of c-fos and c-jun, chondrocytes were incubated for 1 hour in the presence of IL-1, PMA or AA (3 μM). Chondrocytes were washed in PBS and the total RNA extracted as previously described (Cruz. et al, 1991, Biochem. J. 277, 327-330). RNA samples were run on formaldehyde agarose gels and transferred to nylon membrane for northern analysis using cDNA probes for c-fos and c-jun.

For series [9], the system named is K562. The series is described as follows: MTT cytotoxicity assay, K562. The note with it: K562, 72 hours. In kind it is cell-based, human. The procedure: as §2
as §3, with “Serial concentrations of solutions of the test compounds (0.05-100 μM) were delivered to the corresponding wells.” left out

Series [10] has as its system P388 (ADR). The series is described as follows: MTT cytotoxicity assay, P388 (ADR). In kind it is cell-based, murine. The conditions noted are these: P388 (ADR), 72 hours; read-out: IC50 Value. The procedure:
as §2, §3

In series [11] the test system is Lewis lung. The series is described as follows: MTT cytotoxicity assay, Lewis lung. The conditions noted are these: 72 hours. In kind it is cell-based, murine. The procedure: as §2, §3
Series [12] has as its system H460. The series is described as follows: MTT cytotoxicity assay, H460. In kind it is cell-based, human. The conditions noted are these: H460, 72 hours. The protocol:
as §2, §3

In series [13] the test system is SK-OV-3. The series is described as follows: MTT cytotoxicity assay, SK-OV-3. The class given is cell-based, human. The conditions noted are these: SK-OV-3, 72 hours. The protocol: as §2, §3
For series [14], the system named is MDAY-2D tumor. The series is described as follows: ammonium bisvanadate and N-acetylcysteine on tumor growth (Example 22). The class given is in vivo, mice. On the set-up: Tumour weight: unit not given here. The note with it: for Tumour weight: individual mice. The procedure:
Forty mice were subcutaneously injected with MDAY-2D tumor cells (8×10^5 /100 μl) on day 1. On day 6, the mice were randomly divided into six groups and injected with the following drugs twice a day: Group 1: 100 μl of PBS; Group 2: 100 μl of 2% NAC(ip) and 0.1 mg ammonium bisvanadate in 100 μl PBS; Group 3: 100 μl of 2% NAC(ip) and 0.25 mg ammonium bisvanadate in 100 μl PBS; Group 4;100 μl of 2% NAC(ip) and 0.5 mg ammonium bisvanadate in 100 μl PBS; Group 5: 100 μl of 2% NAC (ip) and 0.75 mg ammonium bisvanadate in 100 μl PBS and; Group 6: 100 μl of 2% NAC (ip) and 1.0 mg ammonium bisvanadate.
On injection day 11 the mice were sacrificed and the tumors dissected. […] The effective concentrations of the vanadate complexes are from 0.25mg/100 μl and 0.5 mg/100 μl.

As for vitamin E, in series [1], the anticancer activity result is listed as “anticancer activity”.

Take n-tocopherol: the anticancer activity result in series [1] is “anticancer activity”.

Turning to `CC1=C(/C=C/C(C)=C/C=C/C(C)=C/C=C/C=C(C)/C=C/C=C(C)/C=C/C2=C(C)CCCC2(C)C)C(C)(C)CCC1` [β-carotene], the anticancer activity result in series [1] is “anticancer activity”.

In the case of vanadyl hydroperoxide, in [2], the “killing of MDAY-D2 cells” value is reported as “equally effective”. Also, the animal deaths result in [3] (groups of five, 10 mg/ml, 50 μl daily s.c.) is listed as “all five died”. Also, the “efficacy in reducing tumor growth” value in series [3] (mouse, in vivo) is listed as “too toxic to evaluate its efficacy”.

In the case of `N[C@@H](CCC(=O)N[C@@H](CS)C(=O)NCC(=O)O)C(=O)O` [glutathione], the anticancer activity entry in series [1] is listed as “anticancer activity”.

`CCc1occc(=O)c1[O][V](=[O])[O]c1c(CC)occc1=O` [BEOV, bis(ethylmaltolato) oxovanadium]: the “proliferation of cells, such as chondrocytes” value in series [4] is on record as “inhibit”. Moreover, the “Tumour weight, Average” value was 0.82 in series [5] (0.1 mg BEOV + 2% NAC), 0.08 in [5] (0.25 mg BEOV + 2% NAC) and 0.03 in series [5] (0.5 mg BEOV + 2% NAC). Besides, the Tumour weight is 0.9 and 0.6 and 0.8 and 1.0 in series [5] (0.1 mg BEOV twice a day + 2% NAC ip); 0.28 and 0.0 and 0.12 in series [5] (0.25 mg BEOV twice a day + 2% NAC ip); 0.1 and 0.0 in series [5] (0.5 mg BEOV twice a day + 2% NAC ip). Further, the “Body weight, Average” value in [6] (0.1 mg BEOV + 2% NAC) came to 16.5; in series [6] (0.25 mg BEOV + 2% NAC), 16.02; in [6] (0.5 mg BEOV + 2% NAC) it was 15.25. The Body weight in [6] (0.1 mg BEOV + 2% NAC) was 17.8 and 15.5 and 15.9 and 16.8; in [6] (0.25 mg BEOV + 2% NAC) it was 15.9 and 15.7 and 16.9 and 15.4 and 16.2; in series [6] (0.5 mg BEOV + 2% NAC) it was 13.7 and 13.9 and 16 and 17.4. Further, the death of animal result in series [6] (0.1 mg BEOV + 2% NAC) and in series [6] (0.5 mg BEOV + 2% NAC) was “died” each time. The half-inhibitory concentration (IC50) came out at 82.6 µM in series [7]; 374 µM in [9]; 39.8 µM in series [10]; 97.4 µM in [11]; 4.4 µM in series [12]; 2.6 µM in series [13]. Also, the “production of metalloproteases, such as collagenase” value in series [8] is given as “inhibit”.

As for ammonium bis vanadate [ABOV], the “proliferation of cells, such as chondrocytes” value in series [4] was “inhibit”. Moreover, the “production of metalloproteases, such as collagenase” value in series [8] is listed as “inhibit”. Moreover, the Tumour weight in series [14] (0.1 mg ABOV twice a day + 2% NAC ip) was 0.62 and 0.19 and 0.74 and 0.53 and 0.32 and 0.50; in [14] (0.25 mg ABOV twice a day + 2% NAC ip), 0.25 and 0.33 and 0.54 and 0.20 and 0.0 and 0.18; in series [14] (0.5 mg ABOV twice a day + 2% NAC ip), 0.21 and 0.50 and 0.07 and 0.34 and 0.0. Besides, the death of animals result in series [14] (0.75 mg ABOV twice a day + 2% NAC ip) and in series [14] (1.0 mg ABOV twice a day + 2% NAC ip) was “died” each time. The “inhibition of tumor growth” value in [14] (with NAC) is given as “inhibited the tumor growth”.
